The structures appear in SMILES notation.

From patent US8658646B2, “Pyrrolopyrazine kinase inhibitors” (Hoffmann-LaRoche Inc., priority 2011, dated 2014) come the findings set out here.

The target of this assay is T1, JAK3: Recombinant human kinase domain (Homo sapiens, UniProt P52333).
T1 construct: JAK3: Recombinant human kinase domain from Millipore (Cat #14-629) or prepared; purchased Millipore 14-629
T1 sequence (P52333 822-1111 limits assumed): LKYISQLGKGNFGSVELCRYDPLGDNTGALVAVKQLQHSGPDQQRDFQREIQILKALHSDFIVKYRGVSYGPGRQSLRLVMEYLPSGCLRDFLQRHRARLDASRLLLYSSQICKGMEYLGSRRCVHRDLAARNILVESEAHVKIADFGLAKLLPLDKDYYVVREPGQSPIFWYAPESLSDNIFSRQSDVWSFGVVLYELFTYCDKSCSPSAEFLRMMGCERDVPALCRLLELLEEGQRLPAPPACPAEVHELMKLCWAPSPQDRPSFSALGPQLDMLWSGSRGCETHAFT
The assay is described as follows: Determination of IC50 of Janus Kinase (JAK) inhibition, radioactive end-point 33P-ATP assay, JAK3. The format is biochemical. The following applies: ATP 1.5 uM, peptide 50 uM, 20 minutes, read-out: JAK3-INHIB-DR/v1~NO ADDITIVE~Enzyme_Conc = 100.
On to `C[C@@H](NC(=O)c1c[nH]c2ncc(-c3nn(C)c4cc(F)ccc34)nc12)c1ccc(Br)cc1` [Example I-216, 2-(6-Fluoro-1-methyl-1H-indazol-3-yl)-5H-pyrrolo[2,3-b]pyrazine-7-carboxylic acid [(R)-1-(4-bromo-phenyl)-ethyl]-amide], for which the IC50 came out at 13 nM.

For the compound `C[C@@H](NC(=O)c1c[nH]c2ncc(-c3nn(C)c4cc(F)ccc34)nc12)c1cccc(C#N)c1` [Example I-217, 2-(6-Fluoro-1-methyl-1H-indazol-3-yl)-5H-pyrrolo[2,3-b]pyrazine-7-carboxylic acid [(R)-1-(3-cyano-phenyl)-ethyl]-amide], the IC50 worked out at 23.2 nM.

Consider `C[C@@H](NC(=O)c1c[nH]c2ncc(-c3nn(C)c4cc(F)ccc34)nc12)c1ccc(C#N)cc1` [Example I-218, 2-(6-Fluoro-1-methyl-1H-indazol-3-yl)-5H-pyrrolo[2,3-b]pyrazine-7-carboxylic acid [(R)-1-(4-cyano-phenyl)-ethyl]-amide], for which the IC50 worked out at 14.7 nM.

On to `C[C@@H](COCC#N)NC(=O)c1c[nH]c2ncc(-c3nn(C)c4cc(F)ccc34)nc12` [Example I-219, 2-(6-Fluoro-1-methyl-1H-indazol-3-yl)-5H-pyrrolo[2,3-b]pyrazine-7-carboxylic acid ((S)-2-cyanomethoxy-1-methyl-ethyl)-amide], for which the IC50 is 3.04 nM.

In the case of `C[C@@H](NC(=O)c1c[nH]c2ncc(-c3cnc4ccccn34)nc12)C(=O)N1CC(C#N)C1` [Example I-220, 2-Imidazo[1,2-a]pyridin-3-yl-5H-pyrrolo[2,3-b]pyrazine-7-carboxylic acid [(R)-2-(3-cyano-azetidin-1-yl)-1-methyl-2-oxo-ethyl]-amide], the IC50 came out at 2.17 nM.

For the compound `COC[C@H](C)NC(=O)c1c[nH]c2ncc(-c3cnc4cc(C#N)ccn34)nc12` [Example I-222, 2-(7-Cyano-imidazo[1,2-a]pyridin-3-yl)-5H-pyrrolo[2,3-b]pyrazine-7-carboxylic acid ((S)-2-methoxy-1-methyl-ethyl)-amide], the IC50 is 9.9 nM.

For `C[C@@H](NC(=O)c1c[nH]c2ncc(-n3cnc4cc(Cl)ccc43)nc12)C(=O)N1CC(C#N)C1` [Example I-225, 2-(5-Chloro-benzoimidazol-1-yl)-5H-pyrrolo[2,3-b]pyrazine-7-carboxylic acid [(R)-2-(3-cyano-azetidin-1-yl)-1-methyl-2-oxo-ethyl]-amide], the IC50 was found to be 144 nM.

As to `C[C@@H](NC(=O)c1c[nH]c2ncc(-c3nn(CC(=O)O)c4cc(Cl)ccc34)nc12)C(=O)N1CC(C#N)C1` [Example I-226, (6-Chloro-3-{7-[(R)-2-(3-cyano-azetidin-1-yl)-1-methyl-2-oxo-ethylcarbamoyl]-5H-pyrrolo[2,3-b]pyrazin-2-yl}-indazol-1-yl)-acetic acid], the IC50 stood at 8.1 nM.

With `C[C@@H](NC(=O)c1c[nH]c2ncc(-c3nn(CC(=O)N(C)C)c4cc(Cl)ccc34)nc12)C(=O)N1CC(C#N)C1` [Example I-227, 2-(6-Chloro-1-dimethylcarbamoylmethyl-1H-indazol-3-yl)-5H-pyrrolo[2,3-b]pyrazine-7-carboxylic acid [(R)-2-(3-cyano-azetidin-1-yl)-1-methyl-2-oxo-ethyl]-amide], the IC50 was found to be 4.17 nM.

Regarding `C[C@@H](NC(=O)c1c[nH]c2ncc(-c3nn(CC(=O)N4CCOCC4)c4cc(Cl)ccc34)nc12)C(=O)N1CC(C#N)C1` [Example I-228, 2-[6-Chloro-1-(2-morpholin-4-yl-2-oxo-ethyl)-1H-indazol-3-yl]-5H-pyrrolo[2,3-b]pyrazine-7-carboxylic acid [(R)-2-(3-cyano-azetidin-1-yl)-1-methyl-2-oxo-ethyl]-amide], the IC50 is 2.11 nM.

With `C[C@@H](NC(=O)c1c[nH]c2ncc(-c3nn(CCN(C)C)c4cc(Cl)ccc34)nc12)C(=O)N1CC(C#N)C1` [Example I-229, 2-[6-Chloro-1-(2-dimethylamino-ethyl)-1H-indazol-3-yl]-5H-pyrrolo[2,3-b]pyrazine-7-carboxylic acid [(R)-2-(3-cyano-azetidin-1-yl)-1-methyl-2-oxo-ethyl]-amide], the IC50 is 3.34 nM.

For `C[C@@H](NC(=O)c1c[nH]c2ncc(-c3nn(CCN(C)C)c4cc(Cl)ccc34)nc12)C(=O)N1CC(C#N)C1` [Example I-230, 2-[6-Chloro-1-(2-dimethylamino-ethyl)-1H-indazol-3-yl]-5H-pyrrolo[2,3-b]pyrazine-7-carboxylic acid [(R)-2-(3-cyano-azetidin-1-yl)-1-methyl-2-oxo-ethyl]-amide], the IC50 is 12.3 nM.

On to `C[C@@H](NC(=O)c1c[nH]c2ncc(-c3nn(CCN4CCOCC4)c4cc(Cl)ccc34)nc12)C(=O)N1CC(C#N)C1` [Example I-231, 2-[6-Chloro-1-(2-morpholin-4-yl-ethyl)-1H-indazol-3-yl]-5H-pyrrolo[2,3-b]pyrazine-7-carboxylic acid [(R)-2-(3-cyano-azetidin-1-yl)-1-methyl-2-oxo-ethyl]-amide], for which the IC50 is 2.08 nM.

For the compound `C[C@@H](NC(=O)c1c[nH]c2ncc(-c3nn(CCc4ccccn4)c4cc(Cl)ccc34)nc12)C(=O)N1CC(C#N)C1` [Example I-232, 2-[6-Chloro-1-(2-pyridin-2-yl-ethyl)-1H-indazol-3-yl]-5H-pyrrolo[2,3-b]pyrazine-7-carboxylic acid [(R)-2-(3-cyano-azetidin-1-yl)-1-methyl-2-oxo-ethyl)-amide], the IC50 came to 3.56 nM.

Take `C[C@@H](NC(=O)c1c[nH]c2ncc(-c3nn(Cc4ccccn4)c4cc(Cl)ccc34)nc12)C(=O)N1CC(C#N)C1` [Example I-233, 2-(6-Chloro-1-pyridin-2-ylmethyl-1H-indazol-3-yl)-5H-pyrrolo[2,3-b]pyrazine-7-carboxylic acid [(R)-2-(3-cyano-azetidin-1-yl)-1-methyl-2-oxo-ethyl]-amide]: the IC50 stood at 1.29 nM.

For the compound `COC[C@H](C)NC(=O)c1c[nH]c2ncc(-c3nn(Cc4cccnc4)c4cc(Cl)ccc34)nc12` [Example I-235, 2-(6-Chloro-1-pyridin-3-ylmethyl-1H-indazol-3-yl)-5H-pyrrolo[2,3-b]pyrazine-7-carboxylic acid ((S)-2-methoxy-1-methyl-ethyl)-amide], the IC50 was determined as 0.49 nM.

In the case of `COC[C@H](C)NC(=O)c1c[nH]c2ncc(-c3nn(CCN4CCOCC4)c4cc(Cl)ccc34)nc12` [Example I-236, 2-[6-Chloro-1-(2-morpholin-4-yl-ethyl)-1H-indazol-3-yl]-5H-pyrrolo[2,3-b]pyrazine-7-carboxylic acid ((S)-2-methoxy-1-methyl-ethyl)-amide], the IC50 worked out at 0.805 nM.

As for `COC[C@H](C)NC(=O)c1c[nH]c2ncc(-c3nn(CCN4CCOCC4)c4cc(F)ccc34)nc12` [Example I-238, 2-[6-Fluoro-1-(2-morpholin-4-yl-ethyl)-1H-indazol-3-yl]-5H-pyrrolo[2,3-b]pyrazine-7-carboxylic acid ((S)-2-methoxy-1-methyl-ethyl)-amide], the IC50 amounted to 0.815 nM.

Consider `COC[C@H](C)NC(=O)c1c[nH]c2ncc(-c3nn(CCN(C)C)c4cc(F)ccc34)nc12` [Example I-239, 2-[1-(2-Dimethylamino-ethyl)-6-fluoro-1H-indazol-3-yl]-5H-pyrrolo[2,3-b]pyrazine-7-carboxylic acid ((S)-2-methoxy-1-methyl-ethyl)-amide], for which the IC50 amounted to 1.83 nM.
